In patent US20230126310A1 (priority 2020, published 2023):
Where two headings read alike, the source gives them in different places. Square brackets hold non-standard residues; d marks the D form. Peptide text beside a SMILES is read from it. NMeF = CN[C@@H](Cc1ccccc1)C(=O)O

Tested on: SARS-CoV-2

CC(C)(C)n1nc(-c2cccc3ccccc23)c2c(N)ncnc21 [1-naphthyl-PP1]
% Inh. (% Inhibition of SARS-CoV-2) (10 µM): 94.1%

CC(C)C(C(=O)Nc1nccs1)c1ccc(Cl)cc1 (centres unmarked) [4-CMTB]
% Inh. (% Inhibition of SARS-CoV-2) (10 µM): 87.1%

O=C(NC1CCN(Cc2ccccc2)CC1)c1ccc(I)cc1 [4-IBP]
% Inh. (% Inhibition of SARS-CoV-2) (10 µM): 89.9%

c1ccc(CCCCN2CCC(c3ccccc3)CC2)cc1 [4-PPBP]
% Inh. (% Inhibition of SARS-CoV-2) (10 µM): 63.1%

Cc1cc(=O)oc2c(C=O)c(O)ccc12 [4-mu-8C]
% Inh. (% Inhibition of SARS-CoV-2) (10 µM): 106.2%

COc1ccc2nc3c(c(N)c2c1)CCCC3 [7-methoxytacrine]
% Inh. (% Inhibition of SARS-CoV-2) (10 µM): 58.7%

CC[C@@]1(O)C(=O)OCc2c1cc1n(c2=O)Cc2cc3c(N)cccc3nc2-1 [9-aminocamptothecin]
% Inh. (% Inhibition of SARS-CoV-2) (10 µM): 80.3%

Cc1nc(NC(=O)N2CCC[C@H]2C(N)=O)sc1-c1csc(C(C)(C)C)n1 [A66]
% Inh. (% Inhibition of SARS-CoV-2) (10 µM): 54.4%

Cc1[nH]nc2ccc(-c3cncc(OC[C@@H](N)Cc4ccccc4)c3)cc12 [A-674563]
% Inh. (% Inhibition of SARS-CoV-2) (10 µM): 53.3%

O=C(Nc1ccc(S(=O)(=O)C(F)(F)F)cc1)C1=CCN(c2ncccc2C(F)(F)F)CC1 [A-784168]
% Inh. (% Inhibition of SARS-CoV-2) (10 µM): 60.3%

CNC(=O)c1cccc(NC(=O)N2CCC(Oc3ccccc3Cl)CC2)c1 [A-939572]
% Inh. (% Inhibition of SARS-CoV-2) (10 µM): 78.8%

CCC(C)C1O[C@]2(C=C[C@@H]1C)C[C@@H]1CC(C/C=C(\C)[C@@H](OC3C[C@H](OC)[C@@H](OC4C[C@H](OC)[C@@H](O)[C@H](C)O4)[C@H](C)O3)[C@@H](C)/C=C/C=C3\COC4[C@H](O)C(C)=CC(C(=O)O1)[C@]34O)O2 (some centres unmarked) [ABAMECTIN (avermectin B1a)]
% Inh. (% Inhibition of SARS-CoV-2) (10 µM): 108.9%

CCCCCCCCc1ccc(-c2ccc(C(=O)O)cc2)cc1 [AC-55649]
% Inh. (% Inhibition of SARS-CoV-2) (10 µM): 63.1%

C[n+]1c2cc(N)ccc2cc2ccc(N)cc21.[Cl-] [ACRIFLAVINIUM HYDROCHLORIDE]
% Inh. (% Inhibition of SARS-CoV-2) (10 µM, HYDROCHLORIDE): 99.5% | % Inh. (% Inhibition of SARS-CoV-2) (10 µM, listed as Acriflavine hydrochloride, HYDROCHLORIDE): 69.4%

CCCCCCc1ccc(O)cc1O.Nc1c2ccccc2nc2ccccc12 [ACRISORCIN]
% Inh. (% Inhibition of SARS-CoV-2) (10 µM): 61.7%

COCc1c(-c2ccc(NC(=O)Nc3cc(C(F)(F)F)ccc3F)c(F)c2)c2c(N)ncnn2c1CN1CCOCC1 [ACTB-1003]
% Inh. (% Inhibition of SARS-CoV-2) (10 µM): 97.7%

COc1cc2ncnc(Nc3cccc(Cl)c3)c2cc1OC [AG-1478 (Tyrphostin AG-1478), Tyrphostin AG-1478]
% Inh. (% Inhibition of SARS-CoV-2) (10 µM): 73.9%

Cc1ccc2cc(-c3c(C)ccc(C(=O)c4c(-c5ccccc5)n(C)n(-c5ccccc5)c4=O)c3N)ccc2n1 [AMG-PERK-44]
% Inh. (% Inhibition of SARS-CoV-2) (10 µM): 127.9%

c1ccc(C(NCCNC(c2ccccc2)c2ccccc2)c2ccccc2)cc1 [AMN-082]
% Inh. (% Inhibition of SARS-CoV-2) (10 µM): 71.9%

NCC(=O)Nc1ccc(-n2nc(C(F)(F)F)cc2-c2ccc3c(ccc4ccccc43)c2)cc1 [AR-12]
% Inh. (% Inhibition of SARS-CoV-2) (10 µM): 85.7%

COc1ccc(CNC(=O)Nc2ncc([N+](=O)[O-])s2)cc1 [AR-A014418]
% Inh. (% Inhibition of SARS-CoV-2) (10 µM): 82.3%

Cc1sc2c(c1C)C(c1ccc(Cl)cc1)=N[C@@H](CC(=O)Nc1ccc(OCCOCCOCCOCCNc3cccc4c3C(=O)N(C3CCC(=O)NC3=O)C4=O)cc1)c1nnc(C)n1-2 (some centres unmarked) [ARV-825]
% Inh. (% Inhibition of SARS-CoV-2) (10 µM): 52.8%

C[C@H](NC(=O)c1sccc1OCc1ccc(Cl)cc1)c1ccccc1 [AS-1949490]
% Inh. (% Inhibition of SARS-CoV-2) (10 µM): 103.1%

Cl.O.O=CN1CCC(C(=O)NCCN2CCC(=C3c4ccccc4C=Cc4ccccc43)CC2)CC1 [AT-1015]
% Inh. (% Inhibition of SARS-CoV-2) (10 µM): 75.4%

C[C@@H]1COCCN1c1cc(C2(S(C)(=O)=O)CC2)nc(-c2cccc3[nH]ccc23)n1 [AZ20]
% Inh. (% Inhibition of SARS-CoV-2) (10 µM): 100.0%

Cc1ccc(NC(=O)c2cccc(C(C)(C)C#N)c2)cc1Nc1ccc2ncn(C)c(=O)c2c1 [AZ-628]
% Inh. (% Inhibition of SARS-CoV-2) (10 µM): 99.6%

COc1cc(N2CCC(N)CC2)ccc1Nc1ncc(Cl)c(-c2c[nH]c3ccccc23)n1 [AZD3463]
% Inh. (% Inhibition of SARS-CoV-2) (10 µM): 96.5%

CC(=O)N1CCN(CCOc2ccc(C3CCN(C4=Nn5c(nnc5C(F)(F)F)CC4)CC3)cc2)CC1 [AZD3514]
% Inh. (% Inhibition of SARS-CoV-2) (10 µM): 96.8%

Cc1ncc(-c2ccnc(Nc3ccc(S(C)(=O)=O)cc3)n2)n1C(C)C [AZD5438]
% Inh. (% Inhibition of SARS-CoV-2) (10 µM): 67.2%

CN(C)C(=O)c1ccc(S(=O)(=O)c2ccc(NC(=O)[C@@](C)(O)C(F)(F)F)c(Cl)c2)cc1 [AZD7545]
% Inh. (% Inhibition of SARS-CoV-2) (10 µM): 82.4%

COc1ccc(-c2ccc3c(N4CCOC[C@@H]4C)nc(N4CCOC[C@@H]4C)nc3n2)cc1CO [AZD8055]
% Inh. (% Inhibition of SARS-CoV-2) (10 µM): 105.2%

COc1cc2cc(c1Cl)N(C)C(=O)C[C@H](OC(=O)C(C)C)[C@]1(C)O[C@@H]1[C@H](C)[C@@H]1C[C@@](O)(NC(=O)O1)[C@H](OC)/C=C/C=C(\C)C2 [Ansamitocin P-3]
% Inh. (% Inhibition of SARS-CoV-2) (10 µM): 62.6%

CSCC[C@H](NC(=O)[C@H](CC(C)C)NC(=O)[C@@H](Cc1c[nH]c2ccccc12)NC(=O)[C@H](Cc1ccccc1)N(C)C(=O)[C@@H](Cc1c[nH]c2ccccc12)NC(=O)[C@@H](N)CCCNC(=N)N)C(N)=O [Antagonist-G] (H-R[dW][NMeF][dW]LM-NH2; N-terminus and C-terminus assumed)
% Inh. (% Inhibition of SARS-CoV-2) (48 h, 10 μM): 58.0%

CC(C)(C)c1ccc(NC(=O)N2CCN(c3ncccc3Cl)CC2)cc1 [BCTC]
% Inh. (% Inhibition of SARS-CoV-2) (10 µM): 86.4%
